Laboratory results published in patent US11000033B2, “Ketone or oxime compound, and herbicide” (NISSAN CHEMICAL CORPORATION, priority 2014, dated 2021).

What was measured:
Type in all cases: in vivo
rice = test: Test Example 4: effect on crop by soil treatment (symbol b); conditions: application herbicide amount 320 g/ha
Outline: (§1)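 The test used sterilized diluvial soil. Seed was set down in spots and overlaid with about 1.5 cm of soil before growth in a greenhouse kept at 25° C. to 30° C.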

wheat = test: Test Example 4: effect on crop by soil treatment (symbol e); conditions: application herbicide amount 320 g/ha
Outline: as §1

Alopecurus myosuroides [1] = test: Test Example 4: herbicidal effect by soil treatment (symbol J); conditions: application herbicide amount 320 g/ha
Outline: (§2)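 Seeds were sown in sterilized diluvial soil, covered with about 1.5 cm of soil, and the soil surface was sprayed with a water-diluted emulsion of the compound at a predetermined rate. Plants grew in a greenhouse at 25° C. to 30° C.; effects were scored visually 3 weeks after application.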

Chenopodium album = test: Test Example 5: herbicidal effect by foliage application, plastic box (symbol O); conditions: 320 g/ha, 3 weeks after application
Outline: (§3)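 Visual herbicidal score, taken three weeks post-application, of seedlings sprayed on the foliage with water-diluted emulsion at a predetermined amount; plants were 14 days old, greenhouse-raised at 25° C. to 30° C.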

Amaranthus retroflexus = test: Test Example 5: herbicidal effect by foliage application, plastic box (symbol N); conditions: 320 g/ha, 3 weeks after application
Outline: as §3

[2] = tested on: Echinochloa crus-galli var. crus-galli; test: Test Example 3: herbicidal effect by foliage application, Wagner pot (symbol H); conditions: application herbicide amount 320 g/ha, Table 24
Outline: (§4)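 The compound, formulated as an emulsion and diluted with water to a predetermined rate, is applied uniformly to leaves of two-week-old seedlings growing in submerged alluvial soil at 25–30 °C. Rice is included. Each plant is assessed 3 weeks later using defined criteria.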

Digitaria ciliaris = test: Test Example 4: herbicidal effect by soil treatment (symbol F); conditions: application herbicide amount 320 g/ha
Outline: as §2

rice plant = test: Test Example 5: effect on crop by foliage application, plastic box (symbol b); conditions: 320 g/ha, 3 weeks after application
Outline: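 Plants were raised from seed in a greenhouse (25° C. to 30° C.) after sowing in a plastic box of sterilized diluvial soil.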

[3] = tested on: Echinochloa oryzacola Vasing.; test: Test Example 2: herbicidal activity, application during weed generation in submerged conditions (symbol A); conditions: Table 23; application herbicide amount 320 g/ha; grade 0-5 by criteria of Test Example 1
Outline: (§5)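 Treatment timing was the one- to two-leaf stage, with diluted emulsifiable compound dropped onto the paddy water (depth 4 cm) over alluvial soil. All three species grew from a mixed sowing in a 25° C. to 30° C. greenhouse. Injury was judged by eye 3 weeks on.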

Scirpus juncoides = test: Test Example 2: herbicidal activity, application during weed generation in submerged conditions (symbol B); conditions: Table 23; application herbicide amount 320 g/ha; grade 0-5 by criteria of Test Example 1
Outline: as §5

Lolium multiflorum Lam. = test: Test Example 4: herbicidal effect by soil treatment (symbol K); conditions: application herbicide amount 320 g/ha
Outline: as §2

Stellaria media [4] = test: Test Example 5: herbicidal effect by foliage application, plastic box (symbol P); conditions: 320 g/ha, 3 weeks after application
Outline: as §3

Monochoria vaginalis = test: Test Example 2: herbicidal activity, application during weed generation in submerged conditions (symbol C); conditions: Table 23; application herbicide amount 320 g/ha; grade 0-5 by criteria of Test Example 1
Outline: as §5

Stellaria media [5] = test: Test Example 4: herbicidal effect by soil treatment (symbol P); conditions: application herbicide amount 320 g/ha
Outline: as §2

Setaria viridis = test: Test Example 4: herbicidal effect by soil treatment (symbol G); conditions: application herbicide amount 320 g/ha
Outline: as §2

Veronica persica = test: Test Example 4: herbicidal effect by soil treatment (symbol R); conditions: application herbicide amount 320 g/ha
Outline: as §2

Alopecurus myosuroides [6] = test: Test Example 5: herbicidal effect by foliage application, plastic box (symbol J); conditions: 320 g/ha, 3 weeks after application
Outline: as §3

[7] = tested on: Echinochloa crus-galli var. crus-galli; test: Test Example 5: herbicidal effect by foliage application, plastic box (symbol H); conditions: 320 g/ha, 3 weeks after application
Outline: as §3

Avena fatua = test: Test Example 4: herbicidal effect by soil treatment (symbol I); conditions: application herbicide amount 320 g/ha
Outline: as §2

Leptochloa chinensis = test: Test Example 3: herbicidal effect by foliage application, Wagner pot (symbol D); conditions: application herbicide amount 320 g/ha, Table 24
Outline: as §4

SMILES | Effect on crop grade, b: directly sowed rice plant (rice) | Effect on crop grade, e: wheat (wheat) | Herbicidal effect grade, J: Alopecurus myosuroides (Alopecurus myosuroides [1]) | O: Chenopodium album, herbicidal effect grade (Chenopodium album) | N: Amaranthus retroflexus, herbicidal effect grade (Amaranthus retroflexus) | H (Echinochloa crus-galli var. crus-galli) herbicidal effect grade [2] | Herbicidal effect grade, F: Digitaria ciliaris (Digitaria ciliaris) | b: directly sowed rice plant, effect on crop grade (rice plant) | Herbicidal effect grade, A: Echinochloa oryzacola Vasing. [3] | Herbicidal effect grade, B: Scirpus juncoides (Scirpus juncoides) | Herbicidal effect grade, K: Lolium multiflorum Lam. (Lolium multiflorum Lam.) | P: Stellaria media, herbicidal effect grade (Stellaria media [4]) | Herbicidal effect grade, C: Monochoria vaginalis (Monochoria vaginalis) | Herbicidal effect grade, P: Stellaria media (Stellaria media [5]) | Herbicidal effect grade, G: Setaria viridis (Setaria viridis) | Herbicidal effect grade, R: Veronica persica (Veronica persica) | J: Alopecurus myosuroides, herbicidal effect grade (Alopecurus myosuroides [6]) | H: Echinochloa crus-galli var. crus-galli, herbicidal effect grade [7] | Herbicidal effect grade, I: Avena fatua (Avena fatua) | D (Leptochloa chinensis) herbicidal effect grade (Leptochloa chinensis)
CC(CC1CC(OC(=O)COc2ccccc2)=C(c2c(C)cc(-n3cc(Cl)cn3)cc2C)C1=O)=NOCC(F)(F)F (stereo not drawn) [9-012] | 5 (Herbicidal ratio of 90% or more (almost completely withered)) | 0 (Herbicidal ratio of 5% or lower (almost no effect)) | 5 (Herbicidal ratio of 90% or more (almost completely withered)) | 2 (Herbicidal ratio of 20% or higher and lower than 40%) | 4 (Herbicidal ratio of 70% or higher and lower than 90%) | 5 (Herbicidal ratio of 90% or more (almost completely withered)) | 5 (Herbicidal ratio of 90% or more (almost completely withered)) | 5 (Herbicidal ratio of 90% or more (almost completely withered)) | 5 (Herbicidal ratio of 90% or more (almost completely withered)) | 4 (Herbicidal ratio of 70% or higher and lower than 90%) | 5 (Herbicidal ratio of 90% or more (almost completely withered)) | 4 (Herbicidal ratio of 70% or higher and lower than 90%) | 2 (Herbicidal ratio of 20% or higher and lower than 40%) | 0 (Herbicidal ratio of 5% or lower (almost no effect)) | 5 (Herbicidal ratio of 90% or more (almost completely withered)) | 2 (Herbicidal ratio of 20% or higher and lower than 40%) | 5 (Herbicidal ratio of 90% or more (almost completely withered)) | 5 (Herbicidal ratio of 90% or more (almost completely withered)) | 0 (Herbicidal ratio of 5% or lower (almost no effect)) | 5 (Herbicidal ratio of 90% or more (almost completely withered))
CC#Cc1cc(C)c(C2=C(OC(=O)COc3ccccc3)CC(CC(C)=NOCC(F)(F)F)C2=O)c(C)c1 (stereo not drawn) [9-013] | 5 (Herbicidal ratio of 90% or more (almost completely withered)) | 4 (Herbicidal ratio of 70% or higher and lower than 90%) | 5 (Herbicidal ratio of 90% or more (almost completely withered)) | 3 (Herbicidal ratio of 40% or higher and lower than 70%) | 0 (Herbicidal ratio of 5% or lower (almost no effect)) | 5 (Herbicidal ratio of 90% or more (almost completely withered)) | 5 (Herbicidal ratio of 90% or more (almost completely withered)) | 5 (Herbicidal ratio of 90% or more (almost completely withered)) | 5 (Herbicidal ratio of 90% or more (almost completely withered)) | 5 (Herbicidal ratio of 90% or more (almost completely withered)) | 5 (Herbicidal ratio of 90% or more (almost completely withered)) | 2 (Herbicidal ratio of 20% or higher and lower than 40%) | 3 (Herbicidal ratio of 40% or higher and lower than 70%) | 0 (Herbicidal ratio of 5% or lower (almost no effect)) | 5 (Herbicidal ratio of 90% or more (almost completely withered)) | 4 (Herbicidal ratio of 70% or higher and lower than 90%) | 5 (Herbicidal ratio of 90% or more (almost completely withered)) | 5 (Herbicidal ratio of 90% or more (almost completely withered)) | 5 (Herbicidal ratio of 90% or more (almost completely withered)) | 5 (Herbicidal ratio of 90% or more (almost completely withered))
Cc1cc(-n2cc(Cl)cn2)cc(C)c1C1=C(O)CC(CC(=NOCC(F)(F)F)C(C)C)C1=O (stereo not drawn) [9-014] | 1 (Herbicidal ratio of 5% or higher and lower than 20%) | 0 (Herbicidal ratio of 5% or lower (almost no effect)) | 0 (Herbicidal ratio of 5% or lower (almost no effect)) | 0 (Herbicidal ratio of 5% or lower (almost no effect)) | 0 (Herbicidal ratio of 5% or lower (almost no effect)) | 5 (Herbicidal ratio of 90% or more (almost completely withered)) | 4 (Herbicidal ratio of 70% or higher and lower than 90%) | 5 (Herbicidal ratio of 90% or more (almost completely withered)) | 2 (Herbicidal ratio of 20% or higher and lower than 40%) | 0 (Herbicidal ratio of 5% or lower (almost no effect)) | 0 (Herbicidal ratio of 5% or lower (almost no effect)) | 0 (Herbicidal ratio of 5% or lower (almost no effect)) | 0 (Herbicidal ratio of 5% or lower (almost no effect)) | 0 (Herbicidal ratio of 5% or lower (almost no effect)) | 3 (Herbicidal ratio of 40% or higher and lower than 70%) | 0 (Herbicidal ratio of 5% or lower (almost no effect)) | 4 (Herbicidal ratio of 70% or higher and lower than 90%) | 5 (Herbicidal ratio of 90% or more (almost completely withered)) | 0 (Herbicidal ratio of 5% or lower (almost no effect)) | 5 (Herbicidal ratio of 90% or more (almost completely withered))
